Earlier results in publication PMC5629142 (Drugs in R&D, 2017).

Conditions: TBZ co-administered with CYP2D6 inhibitors

In the case of `COc1cc2c(cc1OC)[C@@H]1C[C@H](O)[C@@H](CC(C)C)CN1CC2` [α-HTBZ], the “increase in overall exposure” value is given as 3 fold.
